Test results: US10654814B2, “Bicyclic hydroxamic acids useful as inhibitors of mammalian histone deacetylase activity” (KANCERA AB, priority 2015, dated 2020)
Where a name gives a salt, the structure may show the parent alone.

Target: HDAC6 (Homo sapiens (Human), UniProt Q9UBN7)
Assay: HDAC6 in vitro enzymatic assay (fluorescence)
Assay type: biochemical
Conditions: Table 3; read-out: IC50 (nM) for inhibition of HDAC6
Protocol: Biological Tests Method for Measurement of Enzymatic Activity of HDACs Materials & Methods
All Examples were tested in HDAC1,2,3,6 and 8 in vitro enzymatic assays. The assay principle is well known (Hauser et al. 2009, Bradner et al. 2010) and all necessary reagents like enzymes, substrates, developer and reference compounds are commercially available (see e.g. BPS Biosciences http://www.bpsbioscience.com/). Stock solutions (10 mM in DMSO) of compounds were serially diluted 1:3 in 11 concentrations with a top concentration of 200 μM for HDAC1,2,3 and 2 μM for HDAC6 and HDAC8. The enzymatic reactions were conducted in a mixture containing assay buffer, bovine serum albumin, HDAC substrate, and a test compound. After enzymatic reaction, developer was added and after an additional incubation time, fluorescence intensity was measured at an excitation wavelength of 360 nm and an emission wavelength of 460 nm. All experiments were performed in duplicate.

Sequence of HDAC6 (Q9UBN7 whole entry): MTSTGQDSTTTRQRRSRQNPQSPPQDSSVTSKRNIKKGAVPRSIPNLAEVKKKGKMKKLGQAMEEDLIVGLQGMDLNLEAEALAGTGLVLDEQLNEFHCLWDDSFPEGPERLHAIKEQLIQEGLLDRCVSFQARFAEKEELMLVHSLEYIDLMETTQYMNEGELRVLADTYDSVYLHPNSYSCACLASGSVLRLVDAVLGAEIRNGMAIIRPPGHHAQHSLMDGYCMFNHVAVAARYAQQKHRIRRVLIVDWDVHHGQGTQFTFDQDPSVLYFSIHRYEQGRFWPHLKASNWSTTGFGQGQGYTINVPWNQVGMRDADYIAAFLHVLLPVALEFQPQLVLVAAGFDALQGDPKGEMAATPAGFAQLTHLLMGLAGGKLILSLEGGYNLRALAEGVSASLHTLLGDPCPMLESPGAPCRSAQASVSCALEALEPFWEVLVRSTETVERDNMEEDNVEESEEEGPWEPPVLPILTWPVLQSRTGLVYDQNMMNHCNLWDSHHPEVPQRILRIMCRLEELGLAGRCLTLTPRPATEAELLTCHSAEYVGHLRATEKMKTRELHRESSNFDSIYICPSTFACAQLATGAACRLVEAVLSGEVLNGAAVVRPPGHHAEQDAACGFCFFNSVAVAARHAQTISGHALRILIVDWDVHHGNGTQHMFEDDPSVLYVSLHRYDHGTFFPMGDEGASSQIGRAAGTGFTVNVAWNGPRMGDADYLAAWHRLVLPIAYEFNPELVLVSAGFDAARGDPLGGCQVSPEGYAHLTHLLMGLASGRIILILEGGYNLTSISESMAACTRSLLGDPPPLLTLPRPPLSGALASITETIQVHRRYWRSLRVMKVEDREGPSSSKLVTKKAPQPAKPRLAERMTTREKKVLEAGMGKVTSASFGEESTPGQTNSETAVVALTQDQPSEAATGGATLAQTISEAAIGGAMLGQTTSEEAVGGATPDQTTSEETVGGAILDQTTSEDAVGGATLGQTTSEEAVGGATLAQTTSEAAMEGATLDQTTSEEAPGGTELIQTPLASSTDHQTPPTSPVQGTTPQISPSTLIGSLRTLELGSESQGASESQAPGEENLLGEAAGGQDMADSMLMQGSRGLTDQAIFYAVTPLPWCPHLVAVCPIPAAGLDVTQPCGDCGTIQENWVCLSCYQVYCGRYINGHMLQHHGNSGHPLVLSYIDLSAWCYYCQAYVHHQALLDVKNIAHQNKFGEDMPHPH

IC50	SMILES
20 nM	COc1cc(-c2ccccc2F)ccc1-c1nc2cc(C(=O)NO)ccc2o1 [Example 196, 2-(2′-fluoro-3-methoxybiphenyl-4-yl)-N-hydroxy-1,3-benzoxazole-5-carboxamide]
42 nM	Cn1c(N2CCc3ccccc3C2)nc2cc(C(=O)NO)ccc21 [Example 145, 2-(3,4-dihydroisoquinolin-2(1H)-yl)-N-hydroxy-1-methyl-1H-benzo[d]imidazole-5-carboxamide]
49 nM	O=C(NO)c1ccc2cc(-c3ccoc3)sc2c1 [Example 149, 2-furan-3-yl-N-hydroxy-1-benzothiophene-6-carboxamide]
7 nM	Cn1c(Nc2cccc(-c3ccccc3)c2)nc2cc(C(=O)NO)ccc21 [Example 144, 2-([1,1′-biphenyl]-3-ylamino)-N-hydroxy-1-methyl-1H-benzo[d]imidazole-5-carboxamide]
8 nM	CS(=O)(=O)c1ccc(-c2ccc(-c3nc4cc(C(=O)NO)ccc4o3)cc2)cc1 [Example 180, N-hydroxy-2-[4′-(methylsulfonyl)biphenyl-4-yl]-1,3-benzoxazole-5-carboxamide]
22 nM	Cn1c(N(Cc2ccccc2)c2ccccc2)nc2cc(C(=O)NO)ccc21 [Example 141, 2-(benzyl(phenyl)amino)-N-hydroxy-1-methyl-1H-benzo[d]imidazole-5-carboxamide]
9 nM	Cc1ccc(Nc2nc3cc(C(=O)NO)ccc3o2)cc1 [Example 263, N-hydroxy-2-[(4-methylphenyl)amino]-1,3-benzoxazole-5-carboxamide]
16 nM	O=C(NO)c1ccc2sc(CN3CCCCC3)nc2c1 [Example 273, N-Hydroxy-2-(piperidin-1-ylmethyl)-1,3-benzothiazole-5-carboxamide]
4 nM	O=C(NO)c1ccc2oc(NCc3ccc(-c4ccccc4)cc3)nc2c1 [Example 234, 2-[(biphenyl-4-ylmethyl)amino]-N-hydroxy-1,3-benzoxazole-5-carboxamide]
38 nM	CC(C)c1ccc(-c2nc3cc(C(=O)NO)ccc3o2)cc1F [Example 211, 2-[3-Fluoro-4-(1-methylethyl)phenyl]-N-hydroxy-1,3-benzoxazole-5-carboxamide]
58 nM	CC(C)(C)c1ccc(OCc2cc3cc(C(=O)NO)ccc3o2)cc1 [Example 163, 2-[(4-tert-Butylphenoxy)methyl]-N-hydroxy-1-benzofuran-5-carboxamide]
30 nM	CN(Cc1ccccc1)c1nc2cc(C(=O)NO)ccc2n1C [Example 139, 2-(benzyl(methyl)amino)-N-hydroxy-1-methyl-1H-benzo[d]imidazole-5-carboxamide]
37 nM	O=C(NO)c1ccc2sc(CO)nc2c1 [Example 271, N-Hydroxy-2-(hydroxymethyl)-1,3-benzothiazole-5-carboxamide]
4 nM	O=C(NO)c1ccc2sc(COCc3ccccc3)nc2c1 [Example 270, 2-[(Benzyloxy)methyl]-N-hydroxy-1,3-benzothiazole-5-carboxamide]
34 nM	O=C(NO)c1ccc2oc(-c3ccc(-c4cccnc4)cc3F)nc2c1 [Example 175, 2-(2-fluoro-4-pyridin-3-ylphenyl)-N-hydroxy-1,3-benzoxazole-5-carboxamide]
22 nM	CC(C)c1ccc(Nc2nc3cc(C(=O)NO)ccc3n2C)cc1 [Example 138, N-hydroxy-2-((4-isopropylphenyl)amino)-1-methyl-1H-benzo[d]imidazole-5-carboxamide]
53 nM	COc1cc(-c2cc3ccc(C(=O)NO)cc3s2)ccc1O [Example 150, N-hydroxy-2-(4-hydroxy-3-methoxyphenyl)-1-benzothiophene-6-carboxamide]
9 nM	O=C(NO)c1ccc2oc(NC3(c4cccc(F)c4)CCCCC3)nc2c1 [Example 262, 2-{[1-(3-fluorophenyl)cyclohexyl]amino}-N-hydroxy-1,3-benzoxazole-5-carboxamide]
4 nM	O=C(NO)c1ccc2cc(-c3cccc(O)c3)oc2c1 [Example 284, N-hydroxy-2-(3-hydroxypheny)-1-benzofuran-6-carboxamide]
7 nM	O=C(NO)c1ccc2oc(Nc3cccc(-c4ccccc4)c3)nc2c1 [Example 230, 2-(biphenyl-3-ylamino)-N-hydroxy-1,3-benzoxazole-5-carboxamide]

The next lines start with the molecule.

SMILES	IC50
O=C(NO)c1ccc2oc(-c3cccc(Br)c3)nc2c1 [Example 16, 2-(3-bromophenyl)-N-hydroxy-1,3-benzoxazole-5-carboxamide]	7 nM
O=C(NO)c1ccc2oc(-c3ccc(F)c(F)c3)nc2c1 [Example 5, 2-(3,4-difluorophenyl)-N-hydroxy-1,3-benzoxazole-5-carboxamide]	36 nM
O=C(NO)c1ccc2oc(-c3ccc(N4CCCC4)nc3)nc2c1 [Example 41, N-Hydroxy-2-(6-pyrrolidin-1-ylpyridin-3-yl)-1,3-benzoxazole-5-carboxamide trifluoroacetate]	22 nM
COc1ccc(F)cc1-c1cc2cc(C(=O)NO)ccc2s1 [Example 106, 2-(5-fluoro-2-methoxyphenyl)-N-hydroxy-1-benzothiophene-5-carboxyamide]	86 nM
O=C(NO)c1ccc2oc(-c3ccc(-c4cccnc4)cc3)nc2c1 [Example 23, N-hydroxy-2-(4-pyridin-3-ylphenyl)-1,3-benzoxazole-5-carboxamide]	11 nM
O=C(NO)c1ccc2nc(N3CCN(c4ccc(F)cc4)CC3)[nH]c2c1 [Example 126, 2-(4-(4-fluorophenyl)piperazin-1-yl)-N-hydroxy-1H-benzo[d]imidazole-6-carboxamide]	85 nM
O=C(NO)c1ccc2nc(-c3ccc4[nH]nnc4c3)oc2c1 [Example 54, 2-(1H-Benzotriazol-5-yl)-N-hydroxy-1,3-benzoxazole-6-carboxamide]	60 nM
O=C(NO)c1ccc2oc(Nc3ccccc3)nc2c1 [Example 42, N-Hydroxy-2-(phenylamino)-1,3-benzoxazole-5-carboxamide]	14 nM
CC(C)c1ccc(-c2cc3ncc(C(=O)NO)cc3s2)cc1 [Example 110, N-Hydroxy-2-[4-(1-methylethyl)phenyl]thieno[3,2-b]pyridine-6-carboxamide]	50 nM
O=C(NO)c1ccc2oc(-c3ccc4c(c3)OCO4)nc2c1 [Example 8, 2-(1,3-benzodioxo1-5-yl)-N-hydroxy-1,3-benzoxazole-5-carboxamide]	14 nM
Cn1cc(-c2cc3cc(C(=O)NO)ccc3s2)cn1 [Example 99, N-hydroxy-2-(1-methyl-1H-pyrazol-4-yl)-1-benzothiophene-5-carboxamide]	16 nM
Cn1c(Nc2ccccc2)nc2cc(C(=O)NO)ccc21 [Example 137, N-Hydroxy-1-methyl-2-(phenylamino)-1H-benzimidazole-5-carboxamide]	39 nM
O=C(NO)c1ccc2oc(-c3ccc(Br)cc3)nc2c1 [Example 2, 2-(4-bromophenyl)-N-hydroxy-1,3-benzoxazole-5-carboxamide]	4 nM
O=C(NO)c1ccc2nc(-c3ccc(-c4cccnc4)nc3)oc2c1 [Example 55, 2-(2,3′-Bipyridin-5-yl)-N-hydroxy-1,3-benzoxazole-6-carboxamide trifluoroacetate]	81 nM
CCN(CC)c1ccc(-c2nc3cc(C(=O)NO)ccc3o2)cc1 [Example 33, 2-[4-(Diethylamino)phenyl]-N-hydroxy-1,3-benzoxazole-5-carboxamide trifluoroacetate]	22 nM
COCCN(C)Cc1cccc(-c2nc3cc(C(=O)NO)ccc3o2)c1 [Example 205, N-hydroxy-2-(3-{[(2-methoxy-ethyl)(methyl)amino]methyl}phenyl)-1,3-benzoxazole-5-carboxamide trifluoroacetate]	64 nM
COc1cccc2cc(-c3nc4cc(C(=O)NO)ccc4s3)oc12 [Example 81, N-Hydroxy-2-(7-methoxy-1-benzofuran-2-yl)-1,3-benzothiazole-5-carboxamide]	33 nM
O=C(NO)c1ccc2oc(N3CCC(Cc4ccccc4)CC3)nc2c1 [Example 48, 2-(4-benzylpiperidin-1-yl)-N-hydroxy-1,3-benzoxazole-5-carboxamide]	73 nM
O=C(NO)c1ccc2oc(-c3ccc(N4CCOCC4)nc3)nc2c1 [Example 15, N-hydroxy-2-(6-morpholin-4-ylpyridin-3-yl)-1,3-benzoxazole-5-carboxamide]	28 nM
C[C@@H]1CN(Cc2ccc(-c3nc4cc(C(=O)NO)ccc4o3)cc2)C[C@H](C)O1 [Example 207, 2-(4-{[(cis)-2,6-dimethylmorpholin-4-yl]methyl}phenyl)-N-hydroxy-1,3-benzoxazole-5-carboxamide trifluoroacetate]	73 nM
CN(Cc1ccccc1)c1nc2cc(C(=O)NO)ccc2o1 [Example 44, 2-[benzyl(methyl)amino]-N-hydroxy-1,3-benzoxazole-5-carboxamide]	63 nM
Cc1ncccc1-c1nc2cc(C(=O)NO)ccc2o1 [Example 40, N-Hydroxy-2-(2-methylpyridin-3-yl)-1,3-benzoxazole-5-carboxamide trifluoroacetate]	54 nM
O=C(NO)c1ccc2nc(NCc3ccccc3)[nH]c2c1 [Example 127, 2-(benzylamino)-N-hydroxy-1H-benzo[d]imidazole-6-carboxamide]	60 nM
COc1ccc(-c2nc3ccc(C(=O)NO)cc3o2)cc1 [Example 52, N-hydroxy-2-(4-methoxyphenyl)-1,3-benzoxazole-6-carboxamide]	17 nM
